The values below come from US6498179B1, “Oxazole derivatives, their production and use” (Takeda Chemical Industries, Ltd., priority 1996, dated 2002).

One data set has as its system KKA^y mice. Kind of data set: Test for blood sugar depression in mice. In kind it is in vivo. To be noted: Mus musculus, fasted male KKA^y mice, oral 30 mg/kg, compared with control group. How it is done: After being fasted for 20 hours, 9- to 12-week-old, male KKA^y mice (five mice in each group) were orally given the test compound at a dose of 30 mg/kg/10 ml through a stomach tube. Control mice were orally given 5% gum arabic solution. Blood samples (70 μl) were obtained from orbital venous plexus through capillary tube before and 60 and 120 minutes after the administration of the test compound. Blood glucose was determined according to a glucose oxidase method using a commercial kit (Iatrochem, GIU(A), Iatron Labs. Inc.). Blood glucose level at 60 or 120 minutes of the test groups was compared with that of control group, and was shown as blood glucose depression (%) (Table 1).

The next data set has as its system MIN6 cells. Kind of data set: Insulinotropic effect on MIN6 cells. In kind it is cell-based, mouse. To be noted: compound 10 μM, 12.5 mM glucose, 2 hours, percentage of control. On the procedure: MIN6 cells established from mouse beta cell tumor were cultured in DMEM supplemented with 15% fetal bovine serum on 12-well plate at 37° C. in 5% CO2, and were used at the stage of subconfluency. Cells were washed twice with PBS and incubated in Krebs-Ringer HEPES(KRH) containing with 0.1 mM glucose for 30 minutes. Then they were incubated in KRH containing with 12.5 mM glucose and 0.1% DMSO (control) or compound (10 μM) for 2 hours. Medium was collected and insulin concentration was measured using a commercial radioimmunoassay kit (Amarsham Inc.). The plate was washed once with PBS and cellular protein content was determined by the method of Lowrey et al. (J. Biol. Chem. 193, 265-275, 1951). Insulinotropic activity of the compound was indicated as percentage of control (Table 2).

The mark [1] stands for this setting: 1 h, 60 minutes after administration, read-out: Degree of Blood Glucose Depression (%) After 60 minutes.
[2] abbreviates: 2 h, 120 minutes after administration, read-out: Degree of Blood Glucose Depression (%) After 120 minutes.

The structures appear in SMILES notation. Where two headings read alike, the source gives them in different places.

For `CSc1nccn1-c1nc(-c2ccc(Cl)cc2)c(CCC(=O)O)o1` [Example 32, 4-(4-chlorophenyl)-2-(2-methylthio-1-imidazolyl)-5-oxazolep ropionic acid], the inhibition in vivo at 30 mg/kg in the data set with KKA^y mice (setting [1]) amounted to 25%; with KKA^y mice (setting [2]), 28%.
The corresponding values for `O=C(O)CCc1oc(-n2cnc3ccccc32)nc1-c1ccc(Cl)cc1` [Example 34, 4-(4-chlorophenyl)-2-(1-benzimidazolyl)-5-oxazolepropionic acid] are 27% and 25%.
In the case of `Cc1nccn1-c1nc(-c2ccc(Cl)cc2)c(CCCO)o1` [Example 36, 4-(4-chlorophenyl)-2-(2-methyl-1-imidazolyl)-5-oxazolepropanol], the “Insulin secretion-promoting effect (%)” value with MIN6 cells was 272%. In addition, the inhibition in vivo at 30 mg/kg with KKA^y mice (setting [1]) turned out to be 23%; with KKA^y mice (setting [2]), 18%.
The term melting point denotes the temperature of the solid-liquid transition. Molecule `Cc1nccn1-c1nc(-c2ccc(Cl)cc2)c(CCCCO)o1` [Example 65, 4-(4-chlorophenyl)-2-(2-methyl-1-imidazolyl)-5-oxazolebutanol] registered a melting point of 110 to 111 °C. In the data set with MIN6 cells, the “Insulin secretion-promoting effect (%)” value stood at 397%.
Turning to `Cc1nccn1-c1nc(-c2ccc(Cl)cc2)c(CCCn2ccnc2)o1` [Example 72, 4-(4-chlorophenyl)-5-[3-(1-imidazolyl)propyl]-2-(2-methyl-1-imidazolyl)oxazole], the melting point is 133 to 134 °C. The “Insulin secretion-promoting effect (%)” value with MIN6 cells turned out to be 303%.
Consider `Cc1nc(-c2nc(-c3ccc(Cl)cc3)c(CCCCCO)o2)c[nH]1` [Example 83, 4-(4-chlorophenyl)-2-(2-methyl-imidazolyl)-5-oxazolepentanol], for which the melting point lay within 94 to 95 °C. Besides, the “Insulin secretion-promoting effect (%)” value in the data set with MIN6 cells was 359%.
`Cc1nccn1-c1nc(-c2ccc(Cl)cc2)c(CCCCn2ccnc2)o1` [Example 89, 4-(4-chlorophenyl)-5-[4-(1-imidazolyl)butyl]-2-(2-methyl-1-imidazolyl)oxazole]: the melting point lay in the range of 84 to 85 °C. Further, the “Insulin secretion-promoting effect (%)” value with MIN6 cells is on record as 385%.
